The values that follow come from ChEMBL document CHEMBL3871261, “Novel pyrazolo[3,4-d]pyrimidines as dual Src-Abl inhibitors active against mutant form of Abl and the leukemia K-562 cell line” (Eur J Med Chem, 2016).

Assay [1] in a line: Cytotoxicity against human K562 cells assessed as decrease in cell viability by MTT assay. It is filed as functional.
For another assay, the species on record is Homo sapiens. In words: Inhibition of recombinant PI3K (unknown origin) assessed as residual activity at 100 uM by [gamma-32P]ATP based assay.
Assay [2] addresses Tyrosine-protein kinase ABL1 (Homo sapiens, UniProt P00519). The assay is described as follows: Inhibition of wild type recombinant human Abl using abtide as substrate by [gamma-32P]ATP based assay.

Tyrosine-protein kinase ABL1, sequence (P00519 whole entry): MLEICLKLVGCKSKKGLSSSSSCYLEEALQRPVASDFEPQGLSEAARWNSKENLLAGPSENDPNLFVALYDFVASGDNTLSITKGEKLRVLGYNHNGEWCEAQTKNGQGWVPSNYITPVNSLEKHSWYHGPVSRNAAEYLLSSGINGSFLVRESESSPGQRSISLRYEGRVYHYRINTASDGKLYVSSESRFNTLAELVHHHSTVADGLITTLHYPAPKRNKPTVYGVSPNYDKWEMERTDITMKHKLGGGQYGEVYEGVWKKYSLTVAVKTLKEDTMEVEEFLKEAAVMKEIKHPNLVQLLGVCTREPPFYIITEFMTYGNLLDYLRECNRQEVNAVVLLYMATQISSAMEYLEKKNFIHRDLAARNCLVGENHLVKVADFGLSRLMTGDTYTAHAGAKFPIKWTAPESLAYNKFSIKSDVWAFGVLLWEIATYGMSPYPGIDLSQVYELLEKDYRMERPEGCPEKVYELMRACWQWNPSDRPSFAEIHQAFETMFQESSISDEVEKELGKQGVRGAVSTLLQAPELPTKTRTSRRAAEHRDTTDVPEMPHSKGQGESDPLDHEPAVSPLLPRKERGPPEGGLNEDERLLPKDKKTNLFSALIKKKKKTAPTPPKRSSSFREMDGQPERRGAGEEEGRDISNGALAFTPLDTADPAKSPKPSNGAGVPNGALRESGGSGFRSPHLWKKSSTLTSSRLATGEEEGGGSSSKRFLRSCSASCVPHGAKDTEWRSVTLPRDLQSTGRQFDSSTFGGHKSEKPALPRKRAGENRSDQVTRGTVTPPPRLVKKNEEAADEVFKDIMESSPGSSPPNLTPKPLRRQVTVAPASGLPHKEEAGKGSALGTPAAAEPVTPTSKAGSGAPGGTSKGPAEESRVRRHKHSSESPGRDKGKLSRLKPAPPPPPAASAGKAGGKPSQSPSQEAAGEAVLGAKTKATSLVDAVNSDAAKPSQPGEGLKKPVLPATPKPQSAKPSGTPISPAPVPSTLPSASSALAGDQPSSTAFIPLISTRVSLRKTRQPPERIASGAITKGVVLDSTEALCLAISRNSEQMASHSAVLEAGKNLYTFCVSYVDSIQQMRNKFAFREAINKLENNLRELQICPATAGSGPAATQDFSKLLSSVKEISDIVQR

Take `O=C(NNc1nc2c(cnn2-c2ccccc2)c(=O)n1-c1ccccc1)c1ccccc1`: the cytotoxic concentration (CC50) in assay [1] worked out at 70 nM. The Activity in the assay filed under Homo sapiens worked out at 100%.

Turning to `Cc1nc(Nc2ncc(C(=O)Nc3c(C)cccc3Cl)s2)cc(N2CCN(CCO)CC2)n1` [DASATINIB], the cytotoxic concentration (CC50) in assay [1] was 250 nM.

As for `COc1ccc(C(=O)NNc2nc3c(cnn3-c3ccccc3)c(=O)n2-c2ccccc2)cc1`, in assay [1], the CC50 worked out at 50 nM. Also, the Activity in the assay filed under Homo sapiens worked out at 80%.

As to `O=c1c2cnn(-c3ccccc3)c2n2c(Nc3ccccc3)nnc2n1-c1ccccc1`, the CC50 in assay [1] worked out at 4920 nM. Further, the half-maximal inhibitory concentration (IC50) in assay [2] was 150000 nM.

For `NNc1nc2c(cnn2-c2ccccc2)c(=O)n1-c1ccccc1`, the CC50 in assay [1] turned out to be 2370 nM.

With `O=c1c2cnn(-c3ccccc3)c2nc(N/N=C/c2ccc(F)cc2)n1-c1ccccc1`, the CC50 in assay [1] worked out at 4060 nM. The IC50 in assay [2] came out at 110000 nM.

Regarding `COc1ccc(-c2nnc3n(-c4ccccc4)c(=O)c4cnn(-c5ccccc5)c4n23)cc1`, the CC50 in assay [1] was determined as 1060 nM. Further, the Activity in the assay filed under Homo sapiens stood at 90%.

`O=c1c2cnn(-c3ccccc3)c2n2c(-c3ccccc3)nnc2n1-c1ccccc1`: the half-maximal cytotoxic concentration (CC50) in assay [1] was found to be 920 nM. The Activity in the assay listed under Homo sapiens is 82%.

Regarding `O=C(NNc1nc2c(cnn2-c2ccccc2)c(=O)n1-c1ccccc1)c1ccc(Cl)cc1`, the CC50 in assay [1] stood at 860 nM.

One may read the CC50 as the concentration giving 50% cytotoxicity. By IC50 is commonly meant the midpoint of a concentration-inhibition curve.
